Experimental data published in patent publication US5382670A, “Platelet activating factor antagonists” (priority 1993, dated 1995).
Structures can show the parent of a compound that is named as a salt. Where two headings read alike, the source gives them in different places.

Biological target: PAF receptor (Oryctolagus cuniculus, UniProt G1TEI7)
Assay: PAF receptor binding assay: inhibition of specific [3H]C18-PAF binding to rabbit platelet membranes
Conditions: 0.6 nM [3H]C18-PAF, 60 min, 22-23 °C, Ki from IC50 (Cheng and Prusoff)
Description: The ability of representative compounds of the present invention to inhibit PAF activity was determined in an in vitro test using the following method.
Citrated whole rabbit blood was obtained from Pel-Freez (Rogers, AR). Rabbit platelets were prepared by centrifugation and washing. The platelets were lysed by freeze-thawing and sonication; platelet membranes were prepared by centrifugation and washing. Final membrane preparations were stored frozen in 10 mM Tris/5 mM MgCl2 /2 mM EDTA (TME buffer, pH 7.0) with 0.25M sucrose added for membrane stabilization.
The standard PAF receptor binding assay contained 10 μg platelet membrane protein, 0.6 nM [^3 H]C18 -PAF (from Amersham or New England Nuclear; specific activity 120-180 Ci/mmol), with and without test compound, in "binding buffer" consisting of TME with 0.25% bovine serum albumin added (Sigma, RIA grade). The final volume of the assay was 100 μl. The assay was conducted in Millititre-GV™ (Millipore Corp.) filtration plates; incubation time was for 60 minutes at room temperature (22°-23° C.). "Specific binding" was operationally defined as the arithmetic difference between "total binding" of 0.6 nM [^3 H]C18 -PAF (in the abasence of added PAF) and "nonspecific binding" (in the presence of 1 μM PAF). After the prescribed incubation, platelet membranes were filtered under vacuum, and washed with 1 milliliter of "binding buffer". The filters were dried and removed. The bound radioactivity was quantitated with a Berthold TLC-Linear Analyzer model LB2842.
Dose-response curves of inhibition of specific [^3 H]C18 -PAF binding by test compounds were conducted in triplicate, with at least four doses covering the active range. Experiments were repeated at least once. IC50 values (concentration producing 50% inhibition) were determined by point-to-point evaluation. Ki values of inhibitory binding constants were calculated according to the method of Cheng and Prusoff [Biochem. Pharmacol. 22 (1973) 3099-3108] whereby [formula]
The values of Ki for representative compounds of the present invention appear in Table 1.

[1] = read-out: Ki (PAF Receptor Binding Activity)
[2] = Ki (PAF Receptor Binding Activity)

PAF receptor, sequence (G1TEI7 1-342): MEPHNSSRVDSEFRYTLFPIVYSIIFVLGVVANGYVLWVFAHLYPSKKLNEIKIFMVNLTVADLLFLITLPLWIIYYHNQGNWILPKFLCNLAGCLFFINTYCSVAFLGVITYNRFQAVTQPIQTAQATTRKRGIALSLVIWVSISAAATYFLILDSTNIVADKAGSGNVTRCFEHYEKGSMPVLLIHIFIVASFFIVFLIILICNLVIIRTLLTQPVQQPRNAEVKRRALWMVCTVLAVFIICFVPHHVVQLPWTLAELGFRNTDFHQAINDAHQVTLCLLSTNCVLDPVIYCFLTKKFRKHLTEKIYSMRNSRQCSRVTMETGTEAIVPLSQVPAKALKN

Work on COc1ccc2c(C(=O)C3CSC(c4cccnc4)N3)cn(C(=O)N(C)C)c2c1 (stereo not shown) [Example 85, 1-dimethylcarbamoyl-3-[2-(3-pyridinyl)thiazolid-4-oyl]-6-methoxyindole] yielded a Ki [1] of 4 nM.
Compound CN(C)C(=O)n1cc(C(=O)C2C[S+]([O-])C(c3cccnc3)N2C=O)c2ccccc21 (stereo not shown) [Example 95, 1-dimethylcarbamoyl-3-[1-oxide,2-(3,pyridinyl)-3-formylthiazolid-4-oyl]indole] has a Ki [1] of 3300 nM.
CN(C)C(=O)n1cc(C(=O)[C@@H]2CS[C@H](c3cccnc3)N2C(=O)C(F)(F)F)c2ccccc21 (relative stereo) [Example 105, cis-1-dimethylcarbamoyl-3-[2-(3-pyridinyl)-3-trifluoroacetylthiazolid-4-oyl]indole oxalate] gave a Ki [1] of 175 nM.
For Cc1ccc2c(c1)c(C(=O)C1CSC(c3cccnc3)N1)c(C)n2C(=O)N(C)C (stereo not shown) [Example 69, 1-dimethylcarbamoyl-2,5-dimethyl-3-[2-(3-pyridinyl)thiazolid-4oyl]indole oxalate], the Ki [1] was 13 nM.
Cc1ccc2c(c1)c(C(=O)C1CSC(c3cccnc3)N1)c(C)n2C(=O)OC(C)(C)C (stereo not shown) [Example 67, 1-tert-butoxycarbonyl-2,5-dimethyl-3-[2-[3-pyridinyl)thiazolid-4-oyl]indole oxalate] gave a Ki [1] of 39 nM.
Compound CN(C)C(=O)n1cc(C(=O)C2CSC(c3cccnc3)N2C=O)c2ccc(OCc3ccccc3)cc21 (stereo not shown) [Example 93, 1-dimethylcarbamoyl-3-[2-(3-pyridinyl)-3-formylthiazolid-4-oyl]-6-phenylmethoxyindole] has a Ki [1] of 35 nM.
CN(C)C(=O)n1cc(C(=O)C2COC(c3cccnc3)N2C=O)c2ccccc21 (stereo not shown) [Example 113, 1-dimethylcarbamoyl-3-[2-(3-pyridinyl)-3,formyloxazolid-4-oyl]indole] showed a Ki [1] of 1300 nM.
For CCCn1cc(C(=O)C2CSC(c3cccnc3)N2)c2ccccc21 (stereo not shown) [Example 61, 1-propyl-3-[2-(3-pyridinyl)thiazolid-4-oyl]indole], the Ki [2] was 8 nM.
Compound O=C(c1c[nH]c2cc(OCc3ccc(F)cc3)ccc12)C1CSC(c2cccnc2)N1 (stereo not shown) [Example 74, 3-[2-(3-pyridinyl)thiazolid-4-oyl]-6-(4-fluorophenylmethoxy)indole] has a Ki [1] of 3 nM.
For COc1ccc2c(C(=O)C3CSC(c4cccnc4)N3)c[nH]c2c1 (stereo not shown) [Example 83, 3-[2-(3-pyridinyl)thiazolid-4-oyl]-6-methoxyindole oxalate], the Ki [2] was 16 nM.
O=C(c1c[nH]c2cc(-c3ccccc3)ccc12)C1CSC(c2cccnc2)N1 (stereo not shown) [Example 86, 3-[2-(3-pyridinyl)-thiazolid-4-oyl]-6-phenylindole] showed a Ki [1] of 15 nM.
O=C(C1CSC(c2cccnc2)N1)n1ccc2c(Cl)cccc21 (stereo not shown) [Example 5, 1-[2-(3-pyridinyl)thiazolid-4-oyl]-4-chloroindole dihydrochloride] showed a Ki [1] of 33 nM.
In the case of O=C(C1CSC(c2cccnc2)N1)n1ccc2ccc(Br)cc21 (stereo not shown) [Example 16, 1-[2-(3-pyridinyl)thiazolid-4-oyl]-6-bromoindole], the Ki [2] is reported as 25 nM.
Work on Cc1c(C(=O)C2CSC(c3cccnc3)N2)c2ccccc2n1C(=O)N1CCOCC1 (stereo not shown) [Example 64, 1-(1-morpholinocarbonyl)-2-methyl-3-[2-(3-pyridinyl)thiazolid-4-oyl]indole] yielded a Ki [1] of 88 nM.
“1-ethoxycarbonyl-3-[2-(3-pyridinyl)thiazolid-4-oyl]indole oxalate [Example 41]” showed a Ki [1] of 4 nM.
With CN(C)C(=O)n1cc(C(=O)C2CSC(c3cccnc3)N2C=O)c2ccccc21 (stereo not shown) [Example 91, 1-dimethylcarbamoyl-3-[2-(3-pyridinyl)-3-formylthiazolid-4-oyl]indole] the Ki [1] was 37 nM.
In the case of Cc1ccc2[nH]c(C)c(C(=O)C3CSC(c4cccnc4)N3)c2c1 (stereo not shown) [Example 66, 2,5-dimethyl-3-[2-[3-pyridinyl)thiazolid-4-oyl]indole oxalate], the Ki [2] is reported as 31 nM.
Compound O=C(c1c[nH]c2cccc(OCc3ccccc3)c12)C1CSC(c2cccnc2)N1 (stereo not shown) [Example 24, 3-[2-(3-pyridinyl)thiazolid-4-oyl-4-phenylmethoxyindole oxalate] has a Ki [1] of 13 nM.
Compound CC(C)(C)OC(=O)n1cc(C(=O)C2CSC(c3cccnc3)N2C(N)=O)c2ccccc21 (stereo not shown) [Example 58, 1-tert-butoxycarbonyl-3-[2-(3-pyridinyl)-3-carbamoylthiazolid-4-oyl]indole] has a Ki [1] of 540 nM.
CN(C)C(=O)n1cc(C(=O)C2CSC(c3cccnc3)N2)c2ccccc21 (stereo not shown) [Example 38] gave a Ki [1] of 1 nM.
In the case of CC(=O)N1C(C(=O)c2cn(C(=O)N(C)C)c3cc(OCc4ccccc4)ccc23)CSC1c1cccnc1 (stereo not shown) [Example 99, 1-dimethylcarbamoyl-3-[2-(3-pyridinyl)-3-acetylthiazolid-4-oyl]-6-phenylmethoxyindole], the Ki [1] is reported as 5000 nM.
COc1ccc2c(C(=O)C3CSC(c4cccnc4)N3)cn(C(=O)OC(C)(C)C)c2c1 (stereo not shown) [Example 84, 1-tert-butoxycarbonyl-3-[2-(3-pyridinyl)thiazolid-4-oyl]-6-methoxyindole oxalate] gave a Ki [1] of 9 nM.
O=C(c1cn(C(=O)c2ccc(Cl)cc2)c2ccccc12)C1CSC(c2cccnc2)N1 (stereo not shown) [Example 44, 1-(4-chlorobenzoyl)-3-[2-(3-pyridinyl)thiazolid-4oyl]indole] was tested, and the Ki [1] was 4 nM.
For CC(C)(C)OC(=O)n1cc(C(=O)[C@@H]2CS[C@@H](c3cccnc3)S2)c2ccccc21 (relative stereo) [Example 30, trans 1-tert-butoxycarbonyl-3-[2-(3-pyridinyl)dithiolan-4-oyl]indole oxalate], the Ki [1] was 900 nM.
With O=CN1C(C(=O)c2cn(C(=O)N3CCOCC3)c3ccccc23)CSC1c1cccnc1 (stereo not shown) [Example 92, 1-(4-morpholinocarbonyl)-3-[2-(3-pyridinyl)-3-formylthiazolid-4-oyl]indole] the Ki [1] was 150 nM.
Compound O=C(C1CSC(c2cccnc2)N1)n1ccc2ccc(OCc3ccccc3)cc21 (stereo not shown) [Example 18, 1-(2-(3-pyridinyl)thiazolid-4-oyl)-6-phenylmethoxyindole oxalate] has a Ki [1] of 52 nM.
O=C(c1cn(C(=O)OCc2ccccc2)c2ccccc12)C1CSC(c2cccnc2)N1 (stereo not shown) [Example 45, 1-phenylmethoxycarbonyl-3-[2-(pyridinyl)thiazolid-4-oyl]indole oxalate] gave a Ki [1] of 3 nM.
For O=C(c1c[nH]c2ccccc12)C1CSC(c2cccnc2)N1C(=O)C(F)(F)F (single isomer, unassigned; isomer 2) [Example 103, 3-[2-(3-pyridinyl)-3-trifluoroacetylthiazolid-4-oyl]indole, isomer 2], the Ki [1] was 2800 nM.
O=C(C1CSC(c2cccnc2)S1)n1ccc2ccccc21 (stereo not shown) [Example 26, 1-[2-(3-pyridinyl)dithiolan-4-oyl]indole oxalate] was tested, and the Ki [1] was 360 nM.
CCn1cc(C(=O)C2CSC(c3cccnc3)N2)c2ccccc21 (stereo not shown) [Example 27, 1-ethyl-3-[2-(3-pyridinyl)thiazolid-4-oyl]indole oxalate] gave a Ki [2] of 6 nM.
In the case of COc1ccc2c(C(=O)C3CSC(c4cccnc4)N3)c[nH]c2c1 (stereo not shown) [Example 82, 3-[2-(3-pyridinyl)thiazolid-4-oyl]-6-methoxyindole], the Ki [2] is reported as 9 nM.
Compound CN(C)C(=O)n1cc(C(=O)C2CSC(c3cccnc3)N2C(N)=O)c2ccccc21 (stereo not shown) [Example 110, 1-dimethylcarbamoyl-3-[2-(3-pyridinyl)-3-carbamoylthiazolid-4-oyl]indole] has a Ki [1] of 1400 nM.
O=C(C1CSC(c2cccnc2)N1)n1ccc2cc(Cl)ccc21 (stereo not shown) [Example 9, 1-[2-(3-pyridinyl)thiazolid-4-oyl]-5-chloroindole dihydrochloride] gave a Ki [2] of 140 nM.
Compound CN(C)C(=O)n1cc(C(=O)C2CSC(c3cccnc3)N2)c2ccc(OCc3ccccc3)cc21 (stereo not shown) [Example 52, 1-dimethylcarbamoyl-6-phenylmethoxy-3-[2-(3-pyridinyl)thiazolid-4-oyl]indole] has a Ki [1] of 1 nM.
O=C(c1cc2ccccc2[nH]1)C1CSC(c2cccnc2)N1 (stereo not shown) [Example 115, 2-[2-(3-pyridinyl)thiazolid-4-oyl]indole] gave a Ki [2] of 155 nM.
Work on CC(=O)N1C(C(=O)c2c[nH]c3ccccc23)CSC1c1cccnc1 (stereo not shown) [Example 98, 3-[2-(3-pyridinyl)-3-acetylthiazolid-4-oyl]indole] yielded a Ki [1] of 18000 nM.
Work on COc1cc(C(=O)c2cccc3c2ccn3C(=O)C2CSC(c3cccnc3)N2)cc(OC)c1OC (stereo not shown) [Example 8, 1-[2-(3-pyridinyl)thiazolid-4-oyl]-4-(3,4,5-trimethoxybenzoyl)indole] yielded a Ki [1] of 4 nM.
O=C(c1c[nH]c2ccccc12)C1CSC(c2cccnc2)N1 (stereo not shown) [Example 20, 3-[2-(3-pyridinyl)thiazolid-4-oyl]indole oxalate] gave a Ki [2] of 4 nM.
Compound O=C(c1c[nH]c2cc(Oc3ccc(F)cc3)ccc12)C1CSC(c2cccnc2)N1 (stereo not shown) [Example 70, 3-[2-(3-pyridinyl)thiazolid-4-oyl]-6-(4-fluorophenoxy)indole] has a Ki [1] of 2 nM.
In the case of CN(C(=O)n1cc(C(=O)C2CSC(c3cccnc3)N2)c2ccccc21)c1ccccc1 (stereo not shown) [Example 49, 1-(N-methyl, N-phenyl)-3-[2-(3-pyridinyl)thiazolid-4-oyl]indole], the Ki [1] is reported as 25 nM.
